Measurements: patent US7473681B2, “Kahalalide F” (Pharma Mar, S.A., priority 2000, dated 2009)
Like-named read-outs stand apart in the source and are kept apart here.

Assays:
[1] = test system: prostate carcinoma cells; experiment: Cytotoxicity to carcinoma cells; format: cell-based
[2] = test system: osteosarcomas, OSAs
[3] = glass infusion containers, refrigerated (+2-8° C., in the dark)
Source text: Prior to in i.v. administration it is reconstituted with a solution composed of Cremophor EL, ethanol absolute and Water for Injection (CEW, 5/5/90% v/w) with further dilution in 0.9% w/v sodium chloride for infusion.

[4] = Solubility of KF and recovery after reconstitution and dilution; format: physicochemical; settings: 5/5/90% v/v/v CEW, diluted with 0.9% NaCl down to 0.5 μg/mL
Procedure: Methods. Solubility and stability of KF were studied as a function of polysorbate 80 (P80; 0.1-0.5% w/v) and citric acid monohydrate (CA; 5-15 mM) concentrations using an experimental design approach. Stabilities of KF lyophilized products containing crystalline (mannitol) or amorphous (sucrose) bulking agents were studied at +5° C. and +30° C. in the dark. Lyophilized products were characterized by infrared (IR) spectroscopy and differential scanning calorimetry. Recovery studies after reconstitution of KP lyophilized product and further dilution in infusion fluid were carried out to select an optimal reconstitution vehicle. Results. […] A combination of 0.1% w/v P80 and 5 mM CA was selected for further investigation. […] The glass transition temperature of the sucrose-based product was determined to be +46° C. The amorphous state of the product was confirmed by IR analysis. […] A stable lyophilized formulation is presented containing 100 μg of kahalalide F, 100 mg sucrose, 2.1 mg CA and 2 mg P80 to be reconstituted with a vehicle composed of 5/5/90% v/v/v CEW, and to be further dilute using normal saline.

[5] = test system: DU-145; experiment: In vitro antiproliferative study; format: cell-based; settings: DU-145 prostate tumor
[6] = test system: skeletal muscle (L8) cells; experiment: CellTiter96 (MTS) in vitro cytotoxicity assay; format: cell-based
[7] = In vitro exposure studies; format: cell-based; settings: exposure of 1 hour as potent as 48 hours, in most cases
[8] = test system: BT-474; experiment: In vitro antiproliferative study; format: cell-based; settings: BT-474 neu+ breast tumor cells
[9] = test system: RB; experiment: In vitro antiproliferative study; format: cell-based; settings: RB prostate tumor
[10] = test system: hepatocellular carcinoma cells; experiment: Cytotoxicity to carcinoma cells; format: cell-based
[11] = test system: dedifferentiated and mesenchymal chodrosarcomas, CHSAs
[12] = test system: PC-3; experiment: In vitro antiproliferative study; format: cell-based; settings: PC-3 prostate tumor
[13] = test system: patients with advanced or metastatic androgen refractory prostate cancer; experiment: Phase I study: toxicity and anti-tumor activity; format: in vivo, human
[14] = Rodent maximum tolerated dose; format: in vivo
[15] = CellTiter96 (MTS) in vitro cytotoxicity assay; settings: H9 c2 (2-1) cardiac cells
[16] = test system: motor (choline acetyl transferase positive) neurons in the spinal cord; experiment: Fluorescent viability stain with immunocytochemistry; format: cell-based; settings: ~10 μM
Procedure: (§1) We have also found this drug to be neuxotoxic at high concentrations in our assay system and which correlates well with animal data showing neurotoxicity above the maximum tolerated dose (MTD). Using a fluorescent viability stain (ethidium homodimer and calccin AM, Molecular Probes) coupled with immunocytochemistry, we determined that ˜10 μM Kahalalide is toxic to central nervous system (CNS) neurons (neurofilament positive) but spares astrocytes (glial fibrilary acidic protein positive) as well as sensory (substance P expressing) and motor (choline acetyl transferase positive) neurons in the spinal cord. We conclude that Kahalalide F is a promising drug for the treatment of prostate cancer as its neurotoxicity is relatively mild at or below MTD levels.

[17] = test system: astrocytes (glial fibrilary acidic protein positive); experiment: as above; format: cell-based; settings: ~10 μM
Procedure: as §1

[18] = test system: sensory (substance P expressing) neurons in the spinal cord; experiment: as above; format: cell-based; settings: ~10 μM
Procedure: as §1

[19] = test system: central nervous system (CNS) neurons (neurofilament positive); experiment: as above; format: cell-based; settings: ethidium homodimer and calcein AM stain
Procedure: as §1

[20] = Phase I study: plasma pharmacokinetics; format: in vivo, human
Procedure: Bioanalysis of KF was performed by LC-MS/MS.

[21] = test system: SK-BR-3; experiment: In vitro antiproliferative study; format: cell-based; settings: SK-BR-3 neu+ breast tumor cells
[22] = CellTiter96 (MTS) in vitro cytotoxicity assay; format: cell-based; settings: rat, NRX-52E kidney cells; read-out: LD50 (the source's name)
[23] = test system: BE(2)C; experiment: In vitro antiproliferative study; format: cell-based; settings: BE(2)C neuroblastoma cell line
[24] = test system: T-10; experiment: In vitro antiproliferative study; format: cell-based; settings: T-10 prostate tumor
[25] = CellTiter96 (MTS) in vitro cytotoxicity assay; format: cell-based; settings: mouse, AML-12 liver cells; read-out: LD50 (the source's name)
[26] = test system: fresh human tumor specimens; experiment: Human Tumor Cloning Assay; format: cell-based; settings: 14-day continuous exposure, 31 evaluable specimens
Procedure: In the present study, fresh human tumor specimens were treated with KF to determine activity, utilizing the Human Tumor Cloning Assay. One hundred and four patient tumor specimens were treated with KF under 14-day continuous exposure at 0.01, 0.1, and 1.0 μM. Specimens were incubated in a 2-layer soft-agar cloning system at 37° C. and were removed on Day 14 for colony count. Colonies formed in the treated plates were compared to the number of colonies formed in the untreated control plates, and the percent colonies surviving at each concentration was calculated. The positive control plates contained the cell poison orthosodium vanadate (200 μg/ml). Among these specimens, approximately 30% were evaluable with appropriate negative and positive controls.

[27] = CellTiter96 (MTS) in vitro cytotoxicity assay; format: cell-based; settings: mouse, FDC-P1 myelogenous stem cells; FDC-Pl myelogenous stem cells; read-out: LD50 (the source's name)
[28] = test system: DHM; experiment: In vitro antiproliferative study; format: cell-based; settings: DHM prostate tumor

## C/C=C1\NC(=O)[C@H](Cc2ccccc2)NC(=O)[C@@H](C(C)C)NC(=O)[C@@H](C(C)CC)NC(=O)[C@H](NC(=O)C(NC(=O)[C@H](CCCN)NC(=O)[C@H]2CCCN2C(=O)[C@H](NC(=O)[C@@H](NC(=O)[C@@H](NC(=O)[C@H](NC(=O)CCCC(C)C)C(C)C)C(C)O)C(C)C)C(C)C)C(C)CC)C(C)OC(=O)[C@H](C(C)C)NC1=O (single isomer, unassigned) [Kahalalide F, kahalalide F]
[1]
  cytotoxicity: cytotoxic
[2]
  cytotoxicity: cytotoxic
[3]
  stability of infusion solutions: at least 5 days
[4]
  KF in solution after reconstitution and further dilution: kept KF in solution
[5]
  IC50: 250 nM
[6]
  LD50: 0.6 mM
[7]
  schedule dependence of cytotoxicity: not schedule-dependent
[8]
  IC50: 2000 nM
[9]
  IC50: 190 nM
[10]
  cytotoxicity: cytotoxic
[11]; CHSAs
  cytotoxicity: cytotoxic
[11]; cells not specified further in the sentence
  exposure time eliciting a cytotoxic effect: 10 min
[12]
  IC50: 270 nM
[13]; 320 μg/m2/day, rapidly reversible
  drug related toxicity: CTC grade 3 ASAT
[13]; one hour infusion, five consecutive days every three weeks
  tolerability of schedule: well tolerated
[13]; up to 320 μg/m2/day, study ongoing
  maximum tolerated dose: has not been reached yet
[14]
  MTD: 300 μg/kg BW
[15]
  LD50: 5 mM
[16]
  toxicity to motor neurons: spares
[17]
  toxicity to astrocytes: spares
[18]
  toxicity to sensory neurons: spares
[19]
  concentration toxic to CNS neurons: ~10 µM
[20]; 320 μg/m2/day
  maximum plasma concentrations: 35 to 50 ng/mL
[20]; i.v. infusion over one hour, 20-320 μg/m2/day, patients
  relationship between dose and AUC: linear relationship
[21]
  IC50: 2500 nM
[22]
  CC50: 1600 nM
[23]
  IC50: 1000 nM
[24]
  IC50: 730 nM
[25]
  CC50: 170 nM
[26]; 0.01 μg/M
  specimens with in vitro response (50% survival): 16%
[26]; 0.1 μg/M
  specimens with in vitro response (50% survival): 19%
[26]; 1.0 μg/M
  specimens with in vitro response (50% survival): 81%
[27]
  CC50: 14000 nM
[28]
  IC50: 240 nM
